Patent US20250161297A1, “COMPOSITIONS AND METHODS FOR INHIBITING FSP1” (THE REGENTS OF THE UNIVERSITY OF CALIFORNIA, priority 2022, published 2025)

Tests used:
[1] = test system: H460^C GPX4^KO cells; assay: cell-based assay of FSP1 activity, cell death (SYTOX Green/mCherry lethal fraction); details: H460^C GPX4^KO cells; read-out: EC50 for triggering cell death
Experimental: (§1) For cell-based screen, cells were seeded in triplicate at a density of 500-750 cells per 50 μL per well in black 384-well plates (NUNC) and (Corning) 24 hr before start of imaging. After 24 hr, an additional 50 μL of drug infused medium containing 30 nM SYTOX Green Dead Cell Stain was carefully placed into the wells on top of existing medium. The plates were immediately transferred to an IncuCyte S3 imaging system (Essen Bioscience) enclosed in an incubator set to 37° C. and 5% CO2. One image per well were captured in the phase, green, and red channels every 1.5 or 3 hr over a 24 hr period, and the ratio of SYTOX Green-positive objects (dead cells) to SYTOX Green-positive plus Sg-SAFE mCherry-positive objects (total cells) was quantified using S3 image analysis software (Essen Bioscience). For each treatment condition, the SYTOX-to-′SYTOX+mCherry′-object ratio was plotted against the 24 hr imaging interval, the Area Under the Curve (AUC) was calculated and the average AUC was plotted using Prism (GraphPad). To calculate the half-maximal effective concentration (EC50) values, the AUC curve was fit to a variable slope function comparing response to drug concentration.
In addition to the in vitro activity assay, an orthogonal cell-based assay of FSP1 activity was also developed. […]

[2] = test system: H460^C cells; assay: GPX4 inhibitor-induced cell death with FSEN1 co-treatment; assay type: cell-based
Experimental: as §1
(§2) Synergy experiments: For cell-based synergy experiments, cells were seeded at a density of 750 cells per 25 μL per well in four black 384-well plates (Corning) 24 hr before start of imaging. After 24 hr, an additional 25 μL of drug infused medium containing 30 nM SYTOX Green Dead Cell Stain was carefully placed into the wells on top of existing medium. The plates were immediately transferred to an IncuCyte S3 imaging system (Essen Bioscience) enclosed in an incubator set to 37° C. and 5% CO2. One image per well were captured in the phase, green, and red channels every 4 hr over a 24 hr period, and the ratio of SYTOX Green-positive objects (dead cells) to SYTOX Green-positive plus Sg-SAFE mCherry-positive objects (total cells) was quantified using S3 image analysis software (Essen Bioscience). For each treatment condition, the SYTOX-to-′SYTOX+mCherry′-object ratio was plotted against the 24 hr imaging interval, the Area Under the Curve (AUC) was calculated, and the average AUC was plotted as a function of drug concentration (for example, RSL3) using Prism (GraphPad). To calculate the half-maximal effective concentration (EC50) values, the AUC curve was fit to a variable slope function comparing response to drug concentration.

[3] = test system: H460^C FSP1KO cells; assay: RSL3-, DHA- or FINO2-induced cell death in FSP1 knockout cells; assay type: cell-based
Experimental: as §1
Synergy experiments: For cell-based synergy experiments, cells were seeded at a density of 750 cells per 25 μL per well in four black 384-well plates (Corning) 24 hr before start of imaging. […]

[4] = test system: A549 lung cancer cells; assay: RSL3-induced cell death in A549 cells; assay type: cell-based
Experimental: as §1, with “concentration. […]” for “concentration.”

[5] = test system: A375 melanoma cells; assay: cell death in A375 cells; assay type: cell-based
Experimental: as §1, with “concentration. […]” for “concentration.”

[6] = test system: H460^C cells; assay: DHA- and FINO2-induced cell death with FSEN1 co-treatment; assay type: cell-based; details: 1 μM FSEN1
Experimental: as §1, §2

## COc1ccc(N2CCN(Cc3cn4c(-c5ccc(Br)cc5)nnc4s3)CC2)cc1 [FSEN1]
[1]
  EC50: 69.4 nM
[2]
  sensitization to GPX4 inhibitors RSL3 and ML162: sensitized
[3]; FSP1KO cells
  additional sensitizing effect to DHA and FINO2 induced cell death: no additional sensitizing effect
[3]; H460^C FSP1KO cells
  additional sensitization to RSL3-induced cell death: did not result in any additional sensitization
[4]
  sensitizing effect on ferroptosis induction: particularly large sensitizing effect
[5]
  ferroptosis in the absence of an RSL3 co-treatment: induced a small amount of ferroptosis
[6]
  sensitization to cell death induced by DHA and FINO2: strongly sensitized
